Source: patent US11518981B2, “Methods of enhancing engraftment activity of hematopoietic stem cells” (CHILDREN'S HOSPITAL MEDICAL CENTER, priority 2017, dated 2022)

Assays:
γH2AX = test: DNA damage response (γH2AX, 53BP1) by immunofluorescence and flow cytometry; type: cell-based, human
Experimental: For EdU incorporation assay, cells were incubated with 10 μM EdU throughout the culture period and the CLICK-IT® Plus EdU Pacific Blue Flow Cytometry Assay Kit (ThermoFisher Scientific C10636) was used for staining. […] Samples were run through a FACSCANTOTM, FORTESSATM, or LSR 2 flow cytometers (BD Biosciences), and the data was analyzed by […] software (BD). […] II cell sorter. FACS sorted CD34+38-90+ cells were fixed in 2% paraformaldehyde and permeabilized using 0.1% […] polyether alcohol, Sigma-Aldrich). […] Cells were counterstained and mounted with […]® antifade mounting medium with DAPI (H-1200 Vector Laboratories). Images were obtained using a Nikon 90i upright microscope.

CD34^+ cells = test: total CD34^+ cell number and viability (trypan blue); type: cell-based, human; conditions: ex vivo culture with/without p38i
Experimental: Freshly isolated CD34^+ cells were used, wherever possible, and especially for 0 h controls. In some experiments cryopreserved CD34^+ cells were thawed for 4 hrs in IMDM containing cytokines, then washed and used for experiments. CD34^+ cells were transduced in X-VIVO 10™ (Lonza) medium supplemented with 2% human serum albumin (Baxter), recombinant human Flt-3 ligand (Flt3-L; 200 ng/mL), stem cell factor (SCF; 300 ng/mL), thrombopoietin (TPO; 100 ng/mL) (all cytokines obtained from PeproTech), and penicillin-streptomycin (ThermoFisher Scientific) on non-tissue culture treated plates coated with retronectin (4 μg/cm2, CH-296, Takara Bio Inc.). For LV transduction, CD34^+ cells (2-5×10^6/mL) were pre-stimulated for 4-8 hours and transduced twice with lentivirus vector (LV) maintaining the vector concentration between 5×10^7 to 1×10^8 infectious unit (IU) per mL of media volume, 12-14 hours apart. Cells were kept in culture for a total of either 18-24 hours, 36-42 hours or 72-96 hours. For RV transduction, human CD34^+ cells were pre-stimulated for ˜2 days (42-48 hours) hours at a cell density of 3×10^5 cells/ml. Retronectin coated tissue culture flasks or plates were preloaded at room temperature with GALV pseudotyped RV twice for one hour each. The vector supernatant was removed and the cells were loaded into the RV loaded retronectin coated flasks. […]

[1] = test system: human MPB derived CD34^+ cells; test: multi-lineage reconstitution (myeloid / B-lymphoid) in bone marrow of NSG mice; type: in vivo
Source text: NOD.Cg-Prkdcscid Il2rgtm1Wjl/SzJ (NSG) mice were purchased from The Jackson Laboratory (Bar Harbor, Me.). All animals were bred and maintained in a specific pathogen-free environment and all experiments were approved by the Institutional Animal Care and Use (IACUC) Committee. Male and female NSG mice aged 8 to 14 weeks old were fed doxycycline chow (TestDiet; Modified Prolab RMH-1500 with 0.0625% doxycycline) a week prior to, during and for 2 weeks post irradiation. Human engraftment was analyzed in bone marrow (BM), via BM aspirates performed at 6 and 12 weeks from left and right femurs. After sacrifice at 24 weeks, marrow from all of the primary mice (1 T) was harvested. Peripheral blood analysis was also performed in some experiments. Secondary transplants (2 T) were performed after mouse CD45^+ cells were depleted from BM harvested from each 1 T mouse separately, using Biotin Rat Anti-Mouse CD45 (BD Biosciences 553078) and Streptavidin Particles Plus-DM (BD Biosciences 557812) and injected into one irradiated (280 cGy) secondary NSG mouse. For calculating competitive repopulating units (CRU) from limiting dilution transplantation, the L-CALC^TM software (Stem Cell Technologies) was used. All of the mice used for this study were randomly assigned to a treatment group. No animals were excluded from the analysis. PE-Cyanine 7 or APC-EFLUOR® 780, APC- or PE-conjugated antibodies directed to human CD34 (BD Biosciences 560710 or 555824), CD38 (eBiosciences, San Diego, Calif. 47-0389-42), CD90 (BioLegend 328120), CD45RA (eBiosciences 17-0458-42), CD49f (BD Biosciences 555736), CD45 (BD 55485 or Biolegend 304026), CD33 (eBiosciences 25-0338-42), CD19 (BD Biosciences 557791), or CD3 (BD Biosciences 555340). Cells ( 5×10^5-1×10^6) were used to label with antibodies as per manufacturer instructions with the appropriate isotype controls. For phospho-flow, primary antibodies phospho-[…]), phospho-p44/42 MAPK (ERK 1⁄2) […]; […]), and phospho-JNK […] PE conjugate; […]) (all from Cell Signaling) were used for staining overnight followed by wash and secondary antibody stain including Goat anti-Rabbit IgG (H+L) or Goat anti-Rabbit IgG (H+L) or Pacific Blue (P-10994) antibody. Apoptosis assay was performed using PE Annexin V Apoptosis Detection Kit (BD Biosciences 559763) according to the manufacturer's instructions. Total ROS and mitochondrial specific ROS were detected using 10 μM CM-H2DCFDA (ThermoFisher Scientific C6827) and 5 μM MITOSOXTM Red (Red Mitochondrial Superoxide Indicator) (ThermoFisher Scientific M36008) respectively, following manufacturer's instructions.

In the case of `Cc1ccc(-n2nc(C(C)(C)C)cc2NC(=O)Nc2ccc(OCCN3CCOCC3)c3ccccc23)cc1` [p38i, 1-[5-tert-butyl-2-(4-methylphenyl)pyrazol-3-yl]-3-[4-(2-morpholin-4-ylethoxy)naphthalen-1-yl]urea], the “γH2AX levels in the transduced HSCs” value (γH2AX; 72 h, RV transduced cycling HSCs) was “significantly reduced”, the “percentage of γH2AX^+ cells” value (γH2AX; flow cytometry, 36-42 h and 72-96 h groups) was “significantly reduced” and the “γH2AX MFI and number of γH2AX positive HSC” value (γH2AX; flow cytometry, 24 h) was “returned to levels seen in unmanipulated HSCs”. The “total number of CD34^+ cells, or viability in vitro” value (CD34^+ cells) was “no effect”, the “myeloid skewing of the transduced progeny” value ([1]; 24 week 1 T, cycling HSCs transduced (RV group)) was “somewhat reduced, but still quite significant” and the “multi-potentiality of the graft” value ([1]; 24 week 1 T, gene transfer in first 24 h (non-cycling HSCs), culture up to 96 h) was “restored the multi-potentiality of the graft at 24 week (1 T) to levels similar to 0 h controls”. For the same compound, the “lineage balance in transduced HSCs progeny” value ([1]; limiting dilution transplant, 42 h LV, 6 mo post 1 T) was “had less effect” and the “lineage balance in untransduced progeny” value ([1]; limiting dilution transplant, 42 h LV, 6 mo post 1 T, higher HSPC dosage) was “sufficient to restore lineage balance”.
